Experimental data published in patent publication US10106519B2, “3-phenyl-7-hydroxy-isocoumarins as macrophage migration inhibitory factor (MIF) inhibitors” (The Provost, Fellows, Foundation Scholars, & the Other …, priority 2014, dated 2018).
Entries after “also recorded” stand apart in the source; their conditions may differ.

Experiments:
[1] = test system: LPS mediated PGE-2 production; test: PGE-2 production in LPS treated RAW macrophage cells (ELISA); assay type: cell-based, murine; conditions: 100 μM inhibitor, 100 ng/ml LPS (FIG. 4)
Description: Raw macrophage murine cells were plated at a cell density of 1×10^5 and pre-treated with 100 μM of each of the inhibitors […] for 30 minutes at 37° C. in a humidified 5% CO2 incubator. Raw macrophage cells were then treated with 100 ng/ml of LPS and supernatants were collected after 16 hours at 37° C. in a humidified 5% CO2 incubator and analysed for PGE-2 production. Levels of PGE-2 were measured by ELISA. (CAT # KGE004 R&D Syst).

[2] = test system: LPS induced TNF-α production; test: Inhibition of LPS induced TNF-α production in RAW 264.7 macrophage cells (ELISA); assay type: cell-based, mouse
Description: RAW 264.7 macrophage cells were plated at 1×10^5/ml in 450 μl of medium in a 48 well plate. 16 hours later cells were treated with ISO-1 or Tautomerase Inhibitors at a final concentration of 10, 50 or 100 μM for 30 minutes before stimulation with 100 ng/ml LPS. Supernatants were collected after 20 hours for determination of TNF-α levels. TNF-α levels were determined using a TNF-α specific ELISA (CAT # DY410 R&D Syst).
96 well plates were coated with 50 μl of Capture Antibody ([…]) in PBS and sealed and incubated overnight at 4° C. Plates were then washed three times in 0.05% PBS Tween and plates blotted. Plates were blocked by adding 150 μl of 1% BSA in PBS (Gibco—cat no. 14190-094) to each well and incubated at room temperature for 2 hours. Plates were washed again as previously described. 50 μl of sample or standard was added to each well and incubated for overnight at 4° C. Plates were then washed again as described. 50 μl of the detection Antibody (200 ng/ml) in 1% BSA in PBS was added to each well and incubated for 2 hours at room temperature. Plates were then washed again as described. 50 μl of working concentration of Streptavidin—HRP was added to each well and plates were covered and incubated for 20 minutes at room temperature. 50 μl of substrate solution (One OPD tablet and one urea hydrogen peroxide/buffer tablet were dissolved in 20 ml of water to yield a ready to use buffered solution, Sigma—cat no. 9187-50) was added to each well and incubated for 20 minutes at room temperature. 25 μl of 2N H2SO4 was added to each well to stop the reaction. The optical density of each well was then measured with a spectrophotometer at 450 nm.
Initially the panel of 25 novel potential tautomerase inhibitors was screened in an in-vitro system. In order to do this we exploited the fact that MIF is needed for optimal LPS induced TNF-α production. We therefore reasoned that our potential TIs should be able to inhibit LPS induced TNF-α in RAW macrophage murine cells. RAW macrophage murine cells were plated at 37° C. in a humidified 5% CO2 incubator. 16 hours later the cells were pre-treated with each of the inhibitors at concentration of 100, 50 or 10 μM for 30 minutes 100 ng/ml of LPS was then added to the cells and supernatants were collected after 16 hours and analysed for TNF-α production by ELISA.

[3] = test system: Lewis Lung carcinoma cells (LLC); test: LLC-GLuc proliferation assay with rMIF; assay type: cell-based, mouse; conditions: 100 μM inhibitor, 100 ng/ml rMIF, 48 hours (FIG. 5)
Description: LLC-GLuc cells were plated in a 6 well plate at a density of 5×10^4 cells/ml in DMEM supplemented with P/S, 10% FCS and L-Glu. After overnight adherence, 100 ng/ml MIF was added along with the inhibitors or DMSO to a total of 1 ml serum free medium. Cells were harvested after 48 hours by trypsinisation and counted in a haemocytometer.
The ability of candidate compounds to reduce cellular proliferation was also examined. For this assay, LLC cells were plated at a cell density of 5×10^4 cells/ml. The cells were then pre-treated with TI 19 or ISO-1 at a concentration of 100 μM. The cells were then treated with 100 ng/ml of recombinant MIF. The cells were incubated at 37° C. in a humidified 5% CO2 incubator and after 48 hours the cells were harvested and counted.

Cc1ccccc1-c1cc2ccccc2c(=O)o1 [TI 19]
reduction of LPS mediated PGE-2 production, in words [1]: significantly reduces; also recorded: greater reduction in PGE-2 than ISO-1; also recorded: reduced PGE-2 levels to comparable levels in untreated cells
reduction of TNF-α production, in words ([2]; 10 μM inhibitor (FIG. 2C)): more effective than ISO-1
reduction of TNF-α production, in words ([2]; 50 μM inhibitor (FIG. 2B)): more effective than the commercial standard ISO-1
reduction of TNF-α production, in words ([2]; concentration not given): more effective at reducing TNF-α than the commercially available ISO-1; also recorded: reduction in TNF-α production
reduction of MIF induced proliferation, in words [3]: inhibited significantly; also recorded: reduced proliferation to levels comparable with untreated cells; also recorded: reduced cell proliferation
